# Results reported in ChEMBL document CHEMBL1158175, “Substituted benzylaminoalkylindoles with preference for the sigma2 binding site” (Eur J Med Chem, 2008).
# Legend:
# [1] = Displacement of [3H]DTH from sigma 2 receptor in rat liver homogenate in presence of (+)-pentazocine; assay type: tissue-based
# Rattus norvegicus [2] = organism: Rattus norvegicus; experiment: Displacement of [3H]DTH from sigma 2 receptor in rat liver homogenate at 100 nM in presence of (+)-pentazocine; assay type: tissue-based
# [3] = molecular target: Sigma non-opioid intracellular receptor 1 (Rattus norvegicus) (UniProt Q9R0C9); experiment: Displacement of [3H] (+)-pentazocine from sigma 1 receptor in rat liver homogenate at 100 nM; assay type: tissue-based
# Sigma non-opioid intracellular receptor 1 (Rattus norvegicus), sequence (Q9R0C9 whole entry): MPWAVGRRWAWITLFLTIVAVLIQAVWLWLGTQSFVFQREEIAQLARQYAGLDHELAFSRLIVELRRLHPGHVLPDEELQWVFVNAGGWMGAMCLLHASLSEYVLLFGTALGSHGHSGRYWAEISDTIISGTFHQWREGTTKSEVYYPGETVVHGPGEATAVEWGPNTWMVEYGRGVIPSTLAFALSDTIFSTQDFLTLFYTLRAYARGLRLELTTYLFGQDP
# Rattus norvegicus [4] = organism: Rattus norvegicus; experiment: Selectivity ratio of Ki for rat sigma 1 receptor to Ki for rat sigma 2 receptor
# [5] = molecular target: Sigma non-opioid intracellular receptor 1 (Rattus norvegicus, UniProt Q9R0C9); experiment: Displacement of [3H] (+)-pentazocine from sigma 1 receptor in rat liver homogenate; assay type: tissue-based
# Sigma non-opioid intracellular receptor 1, sequence (Q9R0C9 whole entry): as above
SMILES,Ki [1] [µM],Activity (Rattus norvegicus [2]) [%],Activity [3] [%],Ratio Ki (Rattus norvegicus [4]),Ki [5] [µM],IC50 [1] [µM]
COc1cccc2c1CCCC2CCCCN1CCN(C2CCCCC2)CC1 (stereo not drawn),0.00034,–,–,–,–,–
CN(CCCc1cn(-c2ccc(F)cc2)c2ccccc12)Cc1ccc(Cl)c(Cl)c1,–,39,28,–,–,–
Cc1cccc(CN(C)CCCc2cn(-c3ccc(F)cc3)c3ccccc23)c1,–,64,63,–,–,–
Cc1ccc(CN(C)CCCc2cn(-c3ccc(F)cc3)c3ccccc23)cc1C,0.0469,85,38,2.5,0.118,–
CN(CCCCc1cn(-c2ccc(F)cc2)c2ccccc12)Cc1ccc(Cl)c(Cl)c1,–,69,10,–,–,–
Fc1ccc(-n2cc(CCCCN3CCC4(CC3)OCc3ccccc34)c3ccccc32)cc1 [SIRAMESINE],–,–,–,–,–,0.00012
CN(CCCc1cn(-c2ccc(F)cc2)c2ccccc12)Cc1ccccc1F,–,46,59,–,–,–
CN(CCCCc1cn(-c2ccc(F)cc2)c2ccccc12)Cc1cccc(Cl)c1,0.0256,89,22,7.9,0.201,–
Cc1ccc(CN(C)CCCCc2cn(-c3ccc(F)cc3)c3ccccc23)cc1C,0.0059,93,37,0.05,0.0208,–
CN(CCCCc1cn(-c2ccc(F)cc2)c2ccccc12)Cc1ccccc1F,–,88,49,–,–,–
CN(CCCc1cn(-c2ccc(F)cc2)c2ccccc12)Cc1ccccc1,0.444,27,78,0.05,0.0208,–
CN(CCCc1cn(-c2ccc(F)cc2)c2ccccc12)Cc1ccccc1Cl,–,40,56,–,–,–
CN(CCCc1cn(-c2ccc(F)cc2)c2ccccc12)Cc1cccc(Cl)c1,0.123,59,42,0.8,0.0989,–
CN(CCCCc1cn(-c2ccc(F)cc2)c2ccccc12)Cc1ccccc1Br,–,86,46,–,–,–
CN(CCCCc1cn(-c2ccc(F)cc2)c2ccccc12)Cc1ccccc1Cl,–,87,58,–,–,–
CN(CCCc1cn(-c2ccc(F)cc2)c2ccccc12)Cc1ccccc1Br,–,43,41,–,–,–

# Now from value to compound:
Ki [1] [µM],Activity (Rattus norvegicus [2]) [%],Activity [3] [%],Ratio Ki (Rattus norvegicus [4]),Ki [5] [µM],IC50 [1] [µM],SMILES
–,84,70,–,–,–,CN(CCCCc1cn(-c2ccc(F)cc2)c2ccccc12)Cc1ccc(Br)cc1
–,78,28,–,–,–,CN(CCCCc1cn(-c2ccc(F)cc2)c2ccccc12)Cc1cccc(Br)c1
–,87,71,–,–,–,Cc1ccc(CN(C)CCCCc2cn(-c3ccc(F)cc3)c3ccccc23)cc1
–,62,40,–,–,–,CN(CCCc1cn(-c2ccc(F)cc2)c2ccccc12)Cc1cccc(Br)c1
–,78,69,–,–,–,Cc1ccc(CN(C)CCCc2cn(-c3ccc(F)cc3)c3ccccc23)cc1
–,54,71,–,–,–,CN(CCCc1cn(-c2ccc(F)cc2)c2ccccc12)Cc1ccc(Br)cc1
–,59,68,–,–,–,CN(CCCc1cn(-c2ccc(F)cc2)c2ccccc12)Cc1ccc(Cl)cc1
–,85,72,–,–,–,CN(CCCCc1cn(-c2ccc(F)cc2)c2ccccc12)Cc1ccc(Cl)cc1
–,85,51,–,–,–,Cc1cccc(CN(C)CCCCc2cn(-c3ccc(F)cc3)c3ccccc23)c1
0.0577,68,76,0.76,0.043,–,CN(CCCCc1cn(-c2ccc(F)cc2)c2ccccc12)Cc1ccccc1
